Experimental data as given in ChEMBL document CHEMBL3856270, “Structure-activity relationship of cyclic pentapeptide malformins as fibrinolysis enhancers” (Bioorg Med Chem Lett, 2016).
Activity calls are given as the source filed them. The rule behind the calls is not given here.

Columns and labels:
[1] = system: U-937; assay: Pro-fibrinolytic activity in human U937 cells supplemented with human platelet-poor plasma assessed as [125I]-fibrin degradation after 3 hrs by gamma counting method; format: functional, cell-based
[2] = Cytotoxicity against human U937 cells assessed as reduction in cell viability after 24 hrs by MTT assay; format: toxicity, cell-based, U-937; conditions: for IC50 at 24 h: human, U937 cells
[3] = system: U-937; assay: Pro-fibrinolytic activity in human U937 cells supplemented with human platelet-poor plasma assessed as [125I]-fibrin degradation up to 5 uM after 3 hrs by gamma counting method; format: functional, cell-based
[4] = system: U-937; assay: Pro-fibrinolytic activity in human U937 cells supplemented with human platelet-poor plasma assessed as [125I]-fibrin degradation at >20 uM after 3 hrs by gamma counting method; format: functional, cell-based

CC[C@H](C)[C@@H]1NC(=O)[C@@H](CC(C)C)NC(=O)[C@H](C(C)C)NC(=O)[C@H]2CSSC[C@@H](NC1=O)C(=O)N2 (stereo in doubt; form 1) [listing 1 of 2 here]
Activity [1]: Dose-dependent effect

CC[C@H](C)[C@@H]1NC(=O)[C@@H](CC(C)C)NC(=O)[C@H](C(C)C)NC(=O)[C@@H](CSC(c2ccccc2)(c2ccccc2)c2ccccc2)NC(=O)[C@@H](CSC(c2ccccc2)(c2ccccc2)c2ccccc2)NC1=O
IC50 at 24 h [2]: > 5000 nM

CC[C@H](C)[C@@H]1NC(=O)[C@@H](CC(C)C)NC(=O)[C@H](C)NC(=O)[C@H]2CSSC[C@@H](NC1=O)C(=O)N2
IC50 at 24 h [2]: 1400 nM

CC[C@H](C)[C@@H]1NC(=O)[C@@H](CC(C)C)NC(=O)[C@H](CCCCN)NC(=O)[C@H]2CSSC[C@@H](NC1=O)C(=O)N2
IC50 at 24 h [2]: > 5000 nM

CC(C)C[C@H]1NC(=O)[C@H](C(C)C)NC(=O)[C@H]2CSSC[C@@H](NC(=O)[C@H](CCCCN)NC1=O)C(=O)N2
IC50 at 24 h [2]: > 5000 nM

CC[C@H](C)[C@@H]1NC(=O)[C@@H](CC(C)C)NC(=O)[C@H](CCCCNC(=O)OC(C)(C)C)NC(=O)[C@H]2CSSC[C@@H](NC1=O)C(=O)N2
Activity [3]: Active | IC50 at 24 h [2]: < 100 nM

CC(C)C[C@H]1NC(=O)[C@H](C(C)C)NC(=O)[C@H]2CSSC[C@@H](NC(=O)[C@H](C)NC1=O)C(=O)N2
Activity [3]: Active | IC50 at 24 h [2]: 2800 nM

CC[C@H](C)[C@@H]1NC(=O)[C@@H](CC(C)C)NC(=O)[C@H](C(C)C)NC(=O)[C@H]2CSSC[C@@H](NC1=O)C(=O)N2 (stereo in doubt; form 1) [listing 2 of 2 here]
IC50 ([2]; u-937): 800 nM

CC[C@H](C)[C@@H]1NC(=O)[C@@H](CC(C)C)NC(=O)[C@H](Cc2ccccc2)NC(=O)[C@H]2CSSC[C@@H](NC1=O)C(=O)N2
Activity [3]: Active | IC50 at 24 h [2]: < 100 nM

CC(C)C[C@H]1NC(=O)[C@H](C(C)C)NC(=O)[C@H]2CSSC[C@@H](NC(=O)[C@H](Cc3ccccc3)NC1=O)C(=O)N2
Activity [3]: Active | IC50 at 24 h [2]: < 100 nM

CC[C@H](C)[C@@H]1NC(=O)[C@@H](CC(C)C)NC(=O)[C@H](C(C)C)NC(=O)[C@H]2CSSC[C@@H](NC1=O)C(=O)N2 (stereo in doubt; form 2) [listing 1 of 2 here]
IC50 at 24 h [2]: 760 nM

CC[C@H](C)[C@@H]1NC(=O)[C@@H](C)NC(=O)[C@H](C(C)C)NC(=O)[C@H]2CSSC[C@@H](NC1=O)C(=O)N2
Activity [3]: Active | IC50 at 24 h [2]: 2200 nM

CC[C@H](C)[C@@H]1NC(=O)[C@@H](CCCCNC(=O)OC(C)(C)C)NC(=O)[C@H](C(C)C)NC(=O)[C@H]2CSSC[C@@H](NC1=O)C(=O)N2
Activity [3]: Active | IC50 at 24 h [2]: 200 nM

CC[C@H](C)[C@@H]1NC(=O)[C@@H](Cc2ccccc2)NC(=O)[C@H](C(C)C)NC(=O)[C@H]2CSSC[C@@H](NC1=O)C(=O)N2
Activity [3]: Active | IC50 at 24 h [2]: 1300 nM

CC(C)C[C@H]1NC(=O)[C@H](C(C)C)NC(=O)[C@H]2CSSC[C@@H](NC(=O)[C@H](CCCCNC(=O)OC(C)(C)C)NC1=O)C(=O)N2
Activity [3]: Active | IC50 at 24 h [2]: < 100 nM

CC[C@H](C)[C@@H]1NC(=O)[C@@H](CC(C)C)NC(=O)[C@H](C(C)C)NC(=O)[C@H]2CSSC[C@@H](NC1=O)C(=O)N2 (stereo in doubt; form 2) [listing 2 of 2 here]
Activity [1]: Dose-dependent effect

CC[C@H](C)[C@@H]1NC(=O)[C@@H](CC(C)C)NC(=O)[C@H](C(C)C)NC(=O)[C@@H](CS)NC(=O)[C@@H](CS)NC1=O
Activity [4]: Active | IC50 at 24 h [2]: > 5000 nM

CC[C@H](C)[C@@H]1NC(=O)[C@@H](CC(C)C)NC(=O)[C@H](C(C)C)NC(=O)[C@@H](CSC)NC(=O)[C@@H](CSC)NC1=O
IC50 at 24 h [2]: > 5000 nM

CC[C@H](C)[C@H](N)C(=O)N[C@@H]1CSSC[C@H](C(=O)N[C@H](C(=O)N[C@H](CC(C)C)C(=O)O)C(C)C)NC1=O
IC50 at 24 h [2]: > 5000 nM

N[C@@H]1CSSC[C@H](C(=O)O)NC1=O
IC50 at 24 h [2]: > 5000 nM

CC[C@H](C)[C@@H]1NC(=O)[C@@H](CCCCN)NC(=O)[C@H](C(C)C)NC(=O)[C@H]2CSSC[C@@H](NC1=O)C(=O)N2
IC50 at 24 h [2]: > 5000 nM
